Measurements from patent US11472814B2, “Thienopyranones and furanopyranones as checkpoint inhibitors and modulators of anti-tumor immunity” (SignalRx Pharmaceuticals, Inc., priority 2017, dated 2022).
Where a name gives a salt, the structure may show the parent alone. Read-outs that look alike come from different tables or passages of the source. Values belong to the molecule of their own block, whether it stands above or below them.

Columns and labels:
[1] = test system: Bone marrow derived macrophages (BMDMs), M1 gene expression; assay: M1 marker mRNA in LPS stimulated bone marrow derived macrophages (RT PCR); format: cell-based, murine; conditions: control = 1; for Il1 mRNA expression relative to control / Il6 mRNA expression relative to control / Tnfa mRNA expression relative to control: LPS stimulated BMDMs, 24 hours, normalized to GAPDH; for Ifng relative mRNA expression (M1 gene) / Il1 relative mRNA expression (M1 gene) / Il6 relative mRNA expression (M1 gene) / Nos2 relative mRNA expression (M1 gene) / Tnfa relative mRNA expression (M1 gene): Table 8, LPS polarized murine BMDMs
Excerpt: […] M2 markers Mmr, Ym1, Fizz1 and Mgl mRNA and M1 markers I11, 116 and Tnfa mRNA was quantitated by RT PCR. Values are mean±SEM (n=3-4). Expression of gene of interest is normalized to GAPDH. […] The data provide direct evidence that Compound 1 can block the immunosuppressive macrophage M2 gene expression and activate the M1 gene expression and therefore activate antitumor innate immune cell differentiation in vitro.
(§1) Relative mRNA expression of IL4 or LPS polarized genes in murine bone marrow derived macrophages (BMDMs) treated with various concentrations of inhibitors in vitro. Conclusion: Compound 3 suppressed in vitro macrophage specific immunosuppressive M2 gene expression markers and augmented macrophage stimulatory immune response M1 genes respectively.

[2] = test system: Bone marrow derived macrophages (BMDMs), M2 gene expression; assay: M2 marker mRNA in IL4 stimulated bone marrow derived macrophages (RT PCR); format: cell-based, murine; conditions: control = 1; for Arg mRNA expression relative to control / Fizz1 mRNA expression relative to control / Mgl mRNA expression relative to control / Mmr mRNA expression relative to control / Ym1 mRNA expression relative to control: IL4 stimulated BMDMs, 24 hours, normalized to GAPDH; for Arg relative mRNA expression (M2 gene) / Il10 relative mRNA expression (M2 gene) / Mmr relative mRNA expression (M2 gene) / Tgfb relative mRNA expression (M2 gene) / Vegf relative mRNA expression (M2 gene): Table 7, IL4 polarized murine BMDMs
Method: Bone marrow derived macrophages (MOs) (BMDMs) were exposed to IL4 or LPS for 24 hours to stimulate the M2 or M1 macrophage transition in presence of Compound 1 and the known SYK inhibitor Bay-61-3606 at 1 μM conc. M2 markers Mmr, Ym1, Fizz1 and Mgl mRNA and M1 markers I11, 116 and Tnfa mRNA was quantitated by RT PCR. Values are mean±SEM (n=3-4). Expression of gene of interest is normalized to GAPDH. […] The data provide direct evidence that Compound 1 can block the immunosuppressive macrophage M2 gene expression and activate the M1 gene expression and therefore activate antitumor innate immune cell differentiation in vitro.
as §1

SYK = target: T1, SYK (Homo sapiens, UniProt P43405); assay: SYK inhibition IC50 (Reaction Biology Corp.); format: biochemical
T1 construct: purchased Reaction Biology Corp., Malvern, Pa; (contract assay service)
Excerpt: (§2) The inhibitory activity of a compound of the invention against PI3K and/or BRD4 and/or SYK and/or CDK4/6 can be readily determined using methods known to the skilled artisan, or by commercial vendors offering such services. […] In vivo, PI3K inhibition can be determined from target tissue biopsies by standard tissue processing to disrupt cells and then performing Western Blot analysis to determine the presence or absence of pAKT (substrate of PI3K) relative to a control sample. The activity of a compound of the invention as an inhibitor of a bromodomain-containing protein, such as a BET protein, such as BRD2, BRD3, BRD4, and/or BRDT, or an isoform or mutant thereof, may be determined in vitro, in vivo, or in a cell line. In vitro assays include assays that determine inhibition of bromodomain-containing proteins. Alternatively, inhibitor binding may be determined by running a competition experiment where a provided compound is incubated with a bromodomain-containing protein, such as a BET protein bound to known ligands, labeled or unlabeled. For example, bromodomain inhibition can be determined in vitro using Alpha Screen Technology (http://www.reactionbiologv.com/webapps/site/NewsPDFs/Bromodomain%20Assay %20Platform %20for %20Drug %20Screening %20and %20Discovery.pdf). In vivo bromodomain inhibition can be determined indirectly by evaluating the amount of protein present of proteins whose genes' transcription is influenced or controlled by the bromodomain protein, for example, the MYCN protein transcription is controlled by BRD4 (J. E. Delmore et al., Cell 2011, 146, 904-917; A. Puissant, Cancer Discov. 2013, 3, 308-323). Bromodomain inhibition may also be predicted by in silico modeling as described below in the Examples. Additionally, the company Promega offers a SYK luminescent assay to determine a compound's ability to inhibit the SYK protein (https://www.promega.com/-/media/files/resources/protocols/kinase-enzyme-appnotes/syk-kinase-assay-protocol.pdf?la=en).
Compounds of the invention were characterized for their ability to inhibit target proteins using third party vendors offering such services. PI3K alpha, gamma, and delta inhibition activity was determined by Thermo Fisher Scientific-Biosciences Life Sciences Solutions, Madison, Wis. The bromodomain protein inhibition (binding domain 1 and 2 of BRD4) as well as SYK inhibition was determined at Reaction Biology Corp., Malvern, Pa. Additional information on each of the assays performed and services provided is available at each company's website on the internet (https://www.thermofisher.com/us/en/home/life-science.html and http://www.reactionbiology.com/webapps/site, respectively). The IC50 data (shown below in Table 5) was calculated from a 10-point curve and is expressed in nanomolar concentration (nM) rounded off to the nearest whole number. Where multiple values were obtained the range from lowest to highest values is presented. NI=no inhibition detected up to 50 uM or IC50 not reached at 50 uM.

BRD4-1 = target: T2, BRD4-1 (Homo sapiens, UniProt O60885); assay: Bromodomain protein inhibition IC50, binding domain 1 of BRD4 (Reaction Biology Corp.); conditions: 10-point curve
T2 construct: purchased Reaction Biology Corp., Malvern, Pa; (contract assay service)
Excerpt: as §2
(§3) Compounds of the invention were characterized for their ability to inhibit target proteins using third party vendors offering such services. PI3K alpha, gamma, and delta inhibition activity was determined by Thermo Fisher Scientific-Biosciences Life Sciences Solutions, Madison, Wis. The bromodomain protein inhibition (binding domain 1 and 2 of BRD4) as well as SYK inhibition was determined at Reaction Biology Corp., Malvern, Pa. […] The IC50 data (shown below in Table 5) was calculated from a 10-point curve and is expressed in nanomolar concentration (nM) rounded off to the nearest whole number. […]

BRD4-2 = target: T3, BRD4-2 (Homo sapiens, UniProt O60885); assay: Bromodomain protein inhibition IC50, binding domain 2 of BRD4 (Reaction Biology Corp.); conditions: 10-point curve
T3 construct: purchased Reaction Biology Corp., Malvern, Pa; (contract assay service)
Excerpt: as §2, §3

PI3K γ = target: T4, PI3K γ (Homo sapiens, UniProt P48736); assay: PI3K gamma inhibition IC50 (Thermo Fisher); format: biochemical; conditions: 10-point curve
T4 construct: purchased Thermo Fisher Scientific-Biosciences Life Sciences Solutions, Madison, Wis; (contract assay service)
T4 sequence (P48736 whole entry): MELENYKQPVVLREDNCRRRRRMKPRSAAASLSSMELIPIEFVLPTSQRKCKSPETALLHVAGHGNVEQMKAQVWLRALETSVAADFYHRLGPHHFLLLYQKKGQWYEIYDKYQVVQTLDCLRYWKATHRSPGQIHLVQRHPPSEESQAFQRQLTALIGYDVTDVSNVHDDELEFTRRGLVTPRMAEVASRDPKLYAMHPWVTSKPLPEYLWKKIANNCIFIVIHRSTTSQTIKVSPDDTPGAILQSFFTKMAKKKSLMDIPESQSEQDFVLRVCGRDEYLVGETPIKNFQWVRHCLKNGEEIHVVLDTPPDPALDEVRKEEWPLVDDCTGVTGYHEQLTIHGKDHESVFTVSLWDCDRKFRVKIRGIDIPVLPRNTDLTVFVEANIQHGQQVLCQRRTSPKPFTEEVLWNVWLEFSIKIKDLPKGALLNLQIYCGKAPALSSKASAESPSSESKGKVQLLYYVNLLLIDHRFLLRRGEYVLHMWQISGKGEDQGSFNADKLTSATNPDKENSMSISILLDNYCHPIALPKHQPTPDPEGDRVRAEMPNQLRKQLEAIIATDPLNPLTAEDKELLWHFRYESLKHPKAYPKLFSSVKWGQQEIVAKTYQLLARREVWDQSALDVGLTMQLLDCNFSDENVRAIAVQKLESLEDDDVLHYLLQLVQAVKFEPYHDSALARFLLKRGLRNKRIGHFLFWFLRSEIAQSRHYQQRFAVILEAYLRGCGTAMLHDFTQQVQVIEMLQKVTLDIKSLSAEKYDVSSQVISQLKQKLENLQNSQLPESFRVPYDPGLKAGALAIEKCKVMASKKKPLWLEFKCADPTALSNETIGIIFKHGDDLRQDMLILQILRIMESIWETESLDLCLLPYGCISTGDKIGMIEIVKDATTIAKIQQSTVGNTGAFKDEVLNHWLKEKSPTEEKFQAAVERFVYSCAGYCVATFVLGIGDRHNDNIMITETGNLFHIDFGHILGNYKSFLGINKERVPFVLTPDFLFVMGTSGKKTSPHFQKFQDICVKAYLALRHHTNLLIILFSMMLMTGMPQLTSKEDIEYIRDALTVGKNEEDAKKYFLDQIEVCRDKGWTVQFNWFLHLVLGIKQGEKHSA
Excerpt: as §2, §3

PI3K α = target: T5, PI3K α (Homo sapiens, UniProt P42336); assay: PI3K alpha inhibition IC50 (Thermo Fisher); format: biochemical; conditions: 10-point curve
T5 construct: purchased Thermo Fisher Scientific-Biosciences Life Sciences Solutions, Madison, Wis; (contract assay service)
T5 sequence (P42336 whole entry): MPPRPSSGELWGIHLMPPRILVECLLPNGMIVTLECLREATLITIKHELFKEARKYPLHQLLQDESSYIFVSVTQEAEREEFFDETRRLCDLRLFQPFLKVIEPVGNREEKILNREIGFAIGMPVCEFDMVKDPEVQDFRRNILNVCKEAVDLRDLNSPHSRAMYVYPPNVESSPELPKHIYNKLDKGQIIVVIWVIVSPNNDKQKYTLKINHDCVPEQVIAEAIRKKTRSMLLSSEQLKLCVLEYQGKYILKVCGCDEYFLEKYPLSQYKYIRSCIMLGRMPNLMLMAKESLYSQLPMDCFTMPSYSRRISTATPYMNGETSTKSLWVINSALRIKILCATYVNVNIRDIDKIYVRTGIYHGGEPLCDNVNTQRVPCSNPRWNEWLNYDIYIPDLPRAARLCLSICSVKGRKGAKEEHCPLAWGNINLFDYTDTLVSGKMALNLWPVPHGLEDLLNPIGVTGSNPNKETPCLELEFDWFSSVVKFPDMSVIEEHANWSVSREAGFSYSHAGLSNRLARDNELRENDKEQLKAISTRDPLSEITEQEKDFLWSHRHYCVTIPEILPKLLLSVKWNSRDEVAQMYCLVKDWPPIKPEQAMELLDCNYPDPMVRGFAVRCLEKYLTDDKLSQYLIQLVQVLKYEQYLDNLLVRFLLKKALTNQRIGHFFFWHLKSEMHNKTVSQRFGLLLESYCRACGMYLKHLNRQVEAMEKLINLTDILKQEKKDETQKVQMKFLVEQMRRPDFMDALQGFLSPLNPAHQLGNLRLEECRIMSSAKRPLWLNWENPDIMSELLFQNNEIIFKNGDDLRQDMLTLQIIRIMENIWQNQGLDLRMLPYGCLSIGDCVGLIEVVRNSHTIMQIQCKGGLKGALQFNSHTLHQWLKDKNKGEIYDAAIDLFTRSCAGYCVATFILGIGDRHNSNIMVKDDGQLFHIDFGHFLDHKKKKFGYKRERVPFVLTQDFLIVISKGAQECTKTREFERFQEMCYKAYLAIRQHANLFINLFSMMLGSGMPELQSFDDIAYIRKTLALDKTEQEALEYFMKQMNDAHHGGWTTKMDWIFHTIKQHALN
T5 sequence (P27986 whole entry partner): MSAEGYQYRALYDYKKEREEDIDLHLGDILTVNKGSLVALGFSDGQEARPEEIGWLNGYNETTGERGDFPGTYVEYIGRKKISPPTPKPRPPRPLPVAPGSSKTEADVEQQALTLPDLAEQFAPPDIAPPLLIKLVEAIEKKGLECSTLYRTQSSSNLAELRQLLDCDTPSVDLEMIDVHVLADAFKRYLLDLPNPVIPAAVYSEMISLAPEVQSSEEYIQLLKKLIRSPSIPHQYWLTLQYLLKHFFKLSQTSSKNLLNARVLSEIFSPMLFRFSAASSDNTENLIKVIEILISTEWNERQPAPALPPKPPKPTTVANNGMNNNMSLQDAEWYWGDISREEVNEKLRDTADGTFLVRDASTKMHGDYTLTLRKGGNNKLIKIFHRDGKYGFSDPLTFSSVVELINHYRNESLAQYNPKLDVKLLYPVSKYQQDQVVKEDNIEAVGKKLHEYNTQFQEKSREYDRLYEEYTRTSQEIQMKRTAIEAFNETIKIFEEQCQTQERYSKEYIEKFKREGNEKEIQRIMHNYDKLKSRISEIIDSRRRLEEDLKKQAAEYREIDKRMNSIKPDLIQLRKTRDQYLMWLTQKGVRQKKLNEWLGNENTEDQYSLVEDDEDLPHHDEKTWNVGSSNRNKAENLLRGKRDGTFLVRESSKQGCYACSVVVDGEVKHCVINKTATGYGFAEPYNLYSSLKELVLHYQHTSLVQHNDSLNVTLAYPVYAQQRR
Excerpt: as §2, §3

[3] = 10-point curve, read-out: SYK IC50

SMILES: COc1ccc(-c2cc3nccn3c(Nc3ncccc3C(N)=O)n2)cc1OC [Bay 61-3606, Bay-61-3606, reference compound]
- Il1 mRNA expression relative to control ([1]; 500 nM): 0.66
- Il6 mRNA expression relative to control ([1]; 500 nM): 0.79
- Tnfa mRNA expression relative to control ([1]; 500 nM): 0.88
- Il1 mRNA expression relative to control ([1]; 1 μM): 0.22
- Il6 mRNA expression relative to control ([1]; 1 μM): 0.31
- Tnfa mRNA expression relative to control ([1]; 1 μM): 0.69
- Il1 mRNA expression relative to control ([1]; 5 μM): 0.11
- Il6 mRNA expression relative to control ([1]; 5 μM): 1.63
- Tnfa mRNA expression relative to control ([1]; 5 μM): 2.25
- Arg mRNA expression relative to control ([2]; 500 nM): 0.35
- Fizz1 mRNA expression relative to control ([2]; 500 nM): 0.05
- Mgl mRNA expression relative to control ([2]; 500 nM): 0.33
- Mmr mRNA expression relative to control ([2]; 500 nM): 0.12
- Ym1 mRNA expression relative to control ([2]; 500 nM): 0.07
- Arg mRNA expression relative to control ([2]; 1 μM): 0.33
- Fizz1 mRNA expression relative to control ([2]; 1 μM): 0.005
- Mgl mRNA expression relative to control ([2]; 1 μM): 0.34
- Mmr mRNA expression relative to control ([2]; 1 μM): 0.12
- Ym1 mRNA expression relative to control ([2]; 1 μM): 0.07
- Arg mRNA expression relative to control ([2]; 5 μM): 0.06
- Fizz1 mRNA expression relative to control ([2]; 5 μM): 0.0013
- Mgl mRNA expression relative to control ([2]; 5 μM): 0.36
- Mmr mRNA expression relative to control ([2]; 5 μM): 0.15
- Ym1 mRNA expression relative to control ([2]; 5 μM): 0.04

SMILES: C[C@H](NC(=O)c1c(N)nn2cccnc12)c1cc2cccc(C#Cc3cnn(C)c3)c2c(=O)n1-c1ccccc1 [IPI549, reference compound]
- Ifng relative mRNA expression (M1 gene) ([1]; 500 nM): 1.9 ± 0.249
- Il1 relative mRNA expression (M1 gene) ([1]; 500 nM): 3.9 ± 0.003
- Il6 relative mRNA expression (M1 gene) ([1]; 500 nM): 1.8 ± 0.05
- Nos2 relative mRNA expression (M1 gene) ([1]; 500 nM): 0.83 ± .04
- Tnfa relative mRNA expression (M1 gene) ([1]; 500 nM): 0.984 ± .16
- Arg relative mRNA expression (M2 gene) ([2]; 500 nM): 0.62 ± 0.08
- Il10 relative mRNA expression (M2 gene) ([2]; 500 nM): 0.081 ± .002
- Mmr relative mRNA expression (M2 gene) ([2]; 500 nM): 0.324 ± 0.049
- Tgfb relative mRNA expression (M2 gene) ([2]; 500 nM): 0.568 ± 0.05
- Vegf relative mRNA expression (M2 gene) ([2]; 500 nM): 0.374 ± .132

SMILES: COc1cc(Nc2ncc(F)c(Nc3ccc4c(n3)N(COP(=O)(O)O)C(=O)C(C)(C)O4)n2)cc(OC)c1OC [Compound R788, fostamatinib, reference compound]
- Ifng relative mRNA expression (M1 gene) ([1]; 500 nM): 3.2 ± 0.09
- Il1 relative mRNA expression (M1 gene) ([1]; 500 nM): 1.4 ± 0.003
- Il6 relative mRNA expression (M1 gene) ([1]; 500 nM): 1.8 ± 0.05
- Nos2 relative mRNA expression (M1 gene) ([1]; 500 nM): 0.6 ± 0.014
- Tnfa relative mRNA expression (M1 gene) ([1]; 500 nM): 1.4 ± 0.13
- Arg relative mRNA expression (M2 gene) ([2]; 500 nM): 0.352 ± 0.07
- Il10 relative mRNA expression (M2 gene) ([2]; 500 nM): 0.35 ± 0.026
- Mmr relative mRNA expression (M2 gene) ([2]; 500 nM): 0.31 ± 031
- Tgfb relative mRNA expression (M2 gene) ([2]; 500 nM): 0.771 ± .007
- Vegf relative mRNA expression (M2 gene) ([2]; 500 nM): 0.58 ± 0.065

SMILES: Cc1nn(-c2ccnc(Nc3ccc(-c4csc5c(=O)cc(N6CCNCC6)oc45)cc3)n2)cc1CN1CC(O)C1 [Compound 2, 3-[p-(4-{4-[(3-Hydroxy-1-azetidinyl)methyl]-3-methyl-1H-pyrazol-1-yl}-2-pyrimidinylamino)phenyl]-5-(1-piperazinyl)-4-oxa-1-thia-7-indenone dihydrochloride]
- IC50 (BRD4-1): 5 to 50 µM
- IC50 (SYK; [3]): < 0.1 µM
- IC50 (BRD4-2): > 50 µM
- IC50 (PI3K γ): > 50 µM
- IC50 (PI3K α): 1 to 5 µM

The remaining lines, values ahead:

- IC50 (SYK; note to Table 5, read-out: SYK inhibition IC50): > 50 µM
SMILES: O=c1cc(N2CCOCC2)oc2c(-c3ccc4c(c3)OCCO4)csc12 [Compound 0]

- IC50 (BRD4-1): 5 to 50 µM
- IC50 (SYK; [3]): 0.1 to 1 µM
- IC50 (BRD4-2): > 50 µM
- IC50 (PI3K γ): > 50 µM
- IC50 (PI3K α): 5 to 50 µM
SMILES: Cc1nn(-c2ccnc(Nc3ccc(-c4csc5c(=O)cc(N6CCNCC6)oc45)cc3)n2)cc1CN1CCC1 [Compound 4, 3-[p-(4-{4-[(1-Azetidinyl)methyl]-3-methyl-1H-pyrazol-1-yl}-2-pyrimidinylamino)phenyl]-5-(1-piperazinyl)-4-oxa-1-thia-7-indenone dihydrochloride]
